From ChEMBL document CHEMBL4152265, “Phthalocyanine-sulfonamide conjugates: Synthesis and photodynamic inactivation of Gram-negative and Gram-positive bacteria” (Eur J Med Chem, 2018)
Activity calls are given as the source filed them. The calls are words filed in the database; no cut-off is given here.

Tests used:
Escherichia coli [1] = test: Antibacterial activity against recombinant bioluminescence Escherichia coli harboring pHK724/pHK555 at 20 uM using PVP encapsulated compound preincubated in dark for 30 mins followed by red light irradiation at 1620 J/cm2 for 180 mins by luminometry; type: functional, organism-based
[2] = Solubility of PVP encapsulated compound in PBS at 2.5 to 25 umol/L by UV-Vis spectroscopic method; type: physicochemical; conditions: buffer
[3] = Induction of singlet oxygen generation in PBS assessed as DPBF decay using PVP encapsulated compound at 0.5 mmol/L measured after 7 mins of LED irradiation at 9 mW/cm2; type: functional
Escherichia coli [4] = test: Antibacterial activity against recombinant bioluminescence Escherichia coli harboring pHK724/pHK555 at 20 uM preincubated in dark for 30 mins followed by red light irradiation at 1620 J/cm2 for 180 mins by luminometry; type: functional, organism-based
Escherichia coli [5] = test: Effect on viability of recombinant bioluminescence Escherichia coli harboring pHK724/pHK555 at 20 uM after 30 mins in absence of light by luminometry; type: organism-based; conditions: in vivo, 0.5 h
Staphylococcus aureus [6] = test: Antibacterial activity against Staphylococcus aureus ATCC 29213 using PVP encapsulated compound at 20 uM preincubated in dark for 30 mins followed by red light irradiation at 270 J/cm2 for 30 mins by […] relative to control; type: functional, organism-based
Staphylococcus aureus [7] = test: Effect on viability of Staphylococcus aureus ATCC 29213 using PVP encapsulated compound at 20 uM after 30 mins in absence of light by […]; type: organism-based; conditions: in vivo, 0.5 h
[8] = Induction of singlet oxygen generation in DMF assessed as DPBF decay at 0.5 mmol/L measured after 7 mins of LED irradiation at 9 mW/cm2; type: functional
[9] = Solubility of compound in PBS/10% DMSO at 2.5 to 25 umol/L by UV-Vis spectroscopic method; type: physicochemical; conditions: buffer
[10] = Solubility of compound in DMSO at 2.5 to 25 umol/L by UV-Vis spectroscopic method; type: physicochemical
Staphylococcus aureus [11] = test: Effect on viability of Staphylococcus aureus ATCC 29213 at 20 uM after 30 mins in absence of light by […]; type: organism-based; conditions: in vivo, 0.5 h
Staphylococcus aureus [12] = test: Antibacterial activity against Staphylococcus aureus ATCC 29213 at 20 uM preincubated in dark for 30 mins followed by red light irradiation at 270 J/cm2 for 30 mins by […] relative to control; type: functional
[13] = Induction of singlet oxygen generation in PBS/DMSO assessed as DPBF decay at 0.5 mmol/L measured after 7 mins of LED irradiation at 9 mW/cm2; type: functional
[14] = Photostability in PBS at 2 ml measured after 30 mins of red light irradiation at 150 mW/cm2 by UV-Vis spectroscopic method; type: physicochemical; conditions: buffer, 0.5 h
Escherichia coli [15] = test: Effect on viability of recombinant bioluminescence Escherichia coli harboring pHK724/pHK555 using PVP encapsulated compound at 20 uM after 30 mins in absence of light by luminometry; type: organism-based; conditions: in vivo, 0.5 h

Row | Structure (SMILES) | Activity (Escherichia coli [1]) | solubility [2] | Activity [3] | Activity (Escherichia coli [4]) | Activity (Escherichia coli [5]) | Activity (Staphylococcus aureus [6]) | Activity (Staphylococcus aureus [7]) | Activity [8] | solubility [9] | solubility [10] | Activity (Staphylococcus aureus [11]) | Activity (Staphylococcus aureus [12]) | Activity [13] | Stability [14] | Activity (Escherichia coli [15])
1 | COc1ccc(NS(=O)(=O)c2ccc(Oc3cc4c(cc3Oc3ccc(S(=O)(=O)Nc5ccc(OC)cc5)cc3)-c3nc-4nc4[nH]c(nc5nc(nc6[nH]c(n3)c3cc(Oc7ccc(S(=O)(=O)Nc8ccc(OC)cc8)cc7)c(Oc7ccc(S(=O)(=O)Nc8ccc(OC)cc8)cc7)cc63)-c3cc(Oc6ccc(S(=O)(=O)Nc7ccc(OC)cc7)cc6)c(Oc6ccc(S(=O)(=O)Nc7ccc(OC)cc7)cc6)cc3-5)c3cc(Oc5ccc(S(=O)(=O)Nc6ccc(OC)cc6)cc5)c(Oc5ccc(S(=O)(=O)Nc6ccc(OC)cc6)cc5)cc43)cc2)cc1 | inactive | Soluble | 59% | Active | Non-Toxic | Active | Non-Toxic | 92% | Insoluble | Soluble | Non-Toxic | >3 deltalog10CFU/ml | 4% | Stable | Non-Toxic
2 | CCN(CC)S(=O)(=O)c1ccc(Oc2cc3c(cc2Oc2ccc(S(=O)(=O)N(CC)CC)cc2)-c2nc-3nc3[nH]c(nc4nc(nc5[nH]c(n2)c2cc(Oc6ccc(S(=O)(=O)N(CC)CC)cc6)c(Oc6ccc(S(=O)(=O)N(CC)CC)cc6)cc52)-c2cc(Oc5ccc(S(=O)(=O)N(CC)CC)cc5)c(Oc5ccc(S(=O)(=O)N(CC)CC)cc5)cc2-4)c2cc(Oc4ccc(S(=O)(=O)N(CC)CC)cc4)c(Oc4ccc(S(=O)(=O)N(CC)CC)cc4)cc32)cc1 | inactive | Soluble | 68% | inactive | Non-Toxic | Active | Non-Toxic | 93% | Insoluble | Soluble | Non-Toxic | >3 deltalog10CFU/ml | 1% | Stable | Non-Toxic
3 | CC(C)NS(=O)(=O)c1ccc(Oc2cc3c(cc2Oc2ccc(S(=O)(=O)NC(C)C)cc2)-c2nc-3nc3[nH]c(nc4nc(nc5[nH]c(n2)c2cc(Oc6ccc(S(=O)(=O)NC(C)C)cc6)c(Oc6ccc(S(=O)(=O)NC(C)C)cc6)cc52)-c2cc(Oc5ccc(S(=O)(=O)NC(C)C)cc5)c(Oc5ccc(S(=O)(=O)NC(C)C)cc5)cc2-4)c2cc(Oc4ccc(S(=O)(=O)NC(C)C)cc4)c(Oc4ccc(S(=O)(=O)NC(C)C)cc4)cc32)cc1 | inactive | Soluble | 74% | Active | Non-Toxic | Active | Non-Toxic | 96% | Insoluble | Soluble | Non-Toxic |  | 4% | Stable | Non-Toxic
